The target of series [1] is T1, Prostaglandin E2 receptor EP4 subtype (Homo sapiens, UniProt P35408). The series is described as follows: Partial agonist activity at human EP4 receptor expressed in HEK293-AEQ17 cells assessed as cAMP accumulation by aequorin luminescence assay. Type of series: functional, cell-based. (Changes in cAMP serve as a functional read-out for many G protein-coupled receptors.)

In series [2] the test system is Rattus norvegicus. The series is described as follows: Analgesic activity in rat model of Freund's complete adjuvant-induced acute inflammatory pain assessed as reversal of FCA-induced hypersensitivity at 3 mg/kg, po relative to untreated control. Type of series: functional.
Series [3] has as its system Rattus norvegicus. Nature of the series: Analgesic activity in rat model of Freund's complete adjuvant-induced acute inflammatory pain assessed as reversal of FCA-induced hypersensitivity at 10 mg/kg, po relative to untreated control. Type of series: functional.
Series [4] has as its target T1, Prostaglandin E2 receptor EP4 subtype. The series is described as follows: Displacement of [3H]PGE2 from human EP4 receptor expressed in HEK 293 (EBNA) cell membranes incubated for 60 mins by scintillation counting method. (In general: Displacement assays read how much labelled ligand stays bound in the presence of the test substance.)
Series [5] is described as follows: Half life in rat at 1 mg/kg, po. Type of series: ADME, organism-based. Conditions: in vivo.
Series [6] deals with Rattus norvegicus. The series is described as follows: Analgesic activity in rat model of chronic constriction injury-induced neuropathic pain assessed as reversal of mechanical allodynia at 30 mg/kg dosed twice daily for 8 days relative to untreated control. Type of series: functional. To be noted: 192 h.
Series [7] has as its target T2, Cytochrome P450 3A4 (Homo sapiens, UniProt P08684). Nature of the series: Inhibition of human recombinant CYP3A4 using 7BQ substrate. Type of series: ADME.
The next series deals with Cytochrome P450 2C19 (Homo sapiens, UniProt P33261). Nature of the series: Inhibition of human recombinant CYP2C19. Type of series: ADME.
Series [8] relates to Rattus norvegicus. Nature of the series: Volume of distribution at steady state in rat at 1 mg/kg, […]. Type of series: ADME, organism-based. To be noted: in vivo.
A short description of series [9]: Intrinsic clearance in human liver microsomes. Type of series: ADME, microsome. (In general: Liver microsomes are a subcellular fraction often used to study metabolism.)
The nature of series [10]: Intrinsic clearance in rat liver microsomes. Type of series: ADME, microsome.
The target in another series is Cytochrome P450 2C9 (Homo sapiens, UniProt P11712). The series is described as follows: Inhibition of human recombinant CYP2C9. Type of series: ADME.
Series [11] concerns the target T2, Cytochrome P450 3A4. Nature of the series: Inhibition of human recombinant CYP3A4 using DEF substrate. Type of series: ADME.
Another series addresses T3, Cytochrome P450 1A2 (Homo sapiens, UniProt P05177).
T3 sequence (P05177 whole entry): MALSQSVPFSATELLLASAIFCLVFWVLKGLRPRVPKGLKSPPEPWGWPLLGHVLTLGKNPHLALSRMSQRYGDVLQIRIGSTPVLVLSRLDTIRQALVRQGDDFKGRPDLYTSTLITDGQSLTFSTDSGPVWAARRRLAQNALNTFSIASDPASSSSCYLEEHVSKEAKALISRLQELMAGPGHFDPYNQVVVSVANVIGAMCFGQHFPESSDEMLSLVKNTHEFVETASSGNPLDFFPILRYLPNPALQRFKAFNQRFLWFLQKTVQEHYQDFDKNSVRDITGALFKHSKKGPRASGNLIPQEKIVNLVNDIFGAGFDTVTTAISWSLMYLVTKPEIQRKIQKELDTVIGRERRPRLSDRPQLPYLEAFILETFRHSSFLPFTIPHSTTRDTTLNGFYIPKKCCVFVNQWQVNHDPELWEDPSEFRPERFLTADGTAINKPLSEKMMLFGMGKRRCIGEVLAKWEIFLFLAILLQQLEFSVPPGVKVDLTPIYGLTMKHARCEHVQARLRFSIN
The series is described as follows: Inhibition of human recombinant CYP1A2. Type of series: ADME.

The target in the next series is Cytochrome P450 2D6 (Homo sapiens, UniProt P10635). Nature of the series: Inhibition of human recombinant CYP2D6. Type of series: ADME.
The nature of series [12]: Blood clearance in rat at 1 mg/kg, po. Type of series: ADME, organism-based.
In series [13] the test system is Rattus norvegicus. Nature of the series: Analgesic activity in rat model of chronic joint pain assessed as reversal of pain by measuring weight bearing level at 30 mg/kg, po dosed twice daily for 5 days relative to untreated control. To be noted: 120 h, read-out: INH.
A short description of series [14]: Total drug level in blood of orally dosed rat model of Freund's complete adjuvant-induced acute inflammatory pain assessed as reduction in reversal of hypersensitivity. Type of series: ADME, organism-based. Conditions: in vivo, po, read-out: Drug uptake.
Series [15] deals with Rattus norvegicus. Nature of the series: Analgesic activity in orally dosed rat model of Freund's complete adjuvant-induced acute inflammatory pain assessed as reversal of FCA-induced hypersensitivity. Conditions: po. Type of series: functional.
The test system of series [16] is Rattus norvegicus. Nature of the series: Analgesic activity in rat model of Freund's complete adjuvant-induced acute inflammatory pain assessed as reversal of FCA-induced hypersensitivity at 10 mg/kg, po pre-challenged with 3 mg/kg, po selective EP4 antagonist GW627368X. Type of series: functional, organism-based.

As a reminder, the EC50 is the midpoint of the concentration-response curve. As usually defined, the Ki is the dissociation constant of the complex between target and ligand, obtained from inhibition or displacement. A high value points to weaker binding. As a reminder, the half-life is how long it takes for the measured level to halve. Higher therefore signals slow decline. The term IC50 denotes the concentration that inhibits the measured activity by half. As a reminder, the CL/F is clearance divided by bioavailability, as obtained after extravascular dosing. Broadly, the ED50 is the midpoint of the dose-response relation.

Activity calls are given as the source filed them. No cut-off for these calls is given here.

T1 sequence (P35408 whole entry): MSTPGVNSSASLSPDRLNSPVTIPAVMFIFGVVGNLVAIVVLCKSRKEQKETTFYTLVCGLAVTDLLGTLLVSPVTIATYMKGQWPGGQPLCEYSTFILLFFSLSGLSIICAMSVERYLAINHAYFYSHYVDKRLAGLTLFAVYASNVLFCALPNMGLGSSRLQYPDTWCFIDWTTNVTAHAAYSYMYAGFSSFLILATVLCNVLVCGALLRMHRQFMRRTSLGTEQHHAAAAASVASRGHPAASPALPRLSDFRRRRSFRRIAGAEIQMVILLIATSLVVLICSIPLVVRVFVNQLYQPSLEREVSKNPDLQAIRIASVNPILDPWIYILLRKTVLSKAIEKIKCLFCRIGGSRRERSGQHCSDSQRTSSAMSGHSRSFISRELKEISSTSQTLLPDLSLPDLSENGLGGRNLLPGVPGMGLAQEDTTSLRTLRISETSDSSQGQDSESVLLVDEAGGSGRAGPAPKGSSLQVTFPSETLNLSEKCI
T2 sequence (P08684 whole entry): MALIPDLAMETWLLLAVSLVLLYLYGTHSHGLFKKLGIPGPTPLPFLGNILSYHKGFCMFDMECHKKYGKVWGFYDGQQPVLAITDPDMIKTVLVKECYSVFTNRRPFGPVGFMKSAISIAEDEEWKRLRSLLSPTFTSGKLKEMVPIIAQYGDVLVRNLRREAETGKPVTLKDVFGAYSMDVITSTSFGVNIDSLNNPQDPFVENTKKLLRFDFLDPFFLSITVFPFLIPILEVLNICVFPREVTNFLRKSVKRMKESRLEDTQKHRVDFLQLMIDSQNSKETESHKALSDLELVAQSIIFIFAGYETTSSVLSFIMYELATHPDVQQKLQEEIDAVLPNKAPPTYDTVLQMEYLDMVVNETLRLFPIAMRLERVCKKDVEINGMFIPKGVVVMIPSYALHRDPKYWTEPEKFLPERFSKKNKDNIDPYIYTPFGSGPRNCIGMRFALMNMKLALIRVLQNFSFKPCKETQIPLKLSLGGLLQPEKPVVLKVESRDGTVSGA
Sequence of Cytochrome P450 2D6 (P10635 whole entry): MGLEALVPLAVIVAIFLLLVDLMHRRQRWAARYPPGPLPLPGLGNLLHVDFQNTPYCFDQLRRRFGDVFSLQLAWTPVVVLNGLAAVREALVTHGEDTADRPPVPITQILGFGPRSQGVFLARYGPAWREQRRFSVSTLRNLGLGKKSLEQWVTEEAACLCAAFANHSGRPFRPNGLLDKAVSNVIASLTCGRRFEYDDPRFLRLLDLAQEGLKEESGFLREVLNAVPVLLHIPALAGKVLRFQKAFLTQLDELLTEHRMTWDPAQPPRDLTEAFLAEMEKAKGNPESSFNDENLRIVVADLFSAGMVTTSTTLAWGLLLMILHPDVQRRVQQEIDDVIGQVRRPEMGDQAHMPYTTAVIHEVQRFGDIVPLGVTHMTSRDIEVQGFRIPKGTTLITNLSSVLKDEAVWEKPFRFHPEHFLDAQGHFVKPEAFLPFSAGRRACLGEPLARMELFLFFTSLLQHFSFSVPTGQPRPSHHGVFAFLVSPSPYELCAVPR
Sequence of Cytochrome P450 2C9 (P11712 whole entry): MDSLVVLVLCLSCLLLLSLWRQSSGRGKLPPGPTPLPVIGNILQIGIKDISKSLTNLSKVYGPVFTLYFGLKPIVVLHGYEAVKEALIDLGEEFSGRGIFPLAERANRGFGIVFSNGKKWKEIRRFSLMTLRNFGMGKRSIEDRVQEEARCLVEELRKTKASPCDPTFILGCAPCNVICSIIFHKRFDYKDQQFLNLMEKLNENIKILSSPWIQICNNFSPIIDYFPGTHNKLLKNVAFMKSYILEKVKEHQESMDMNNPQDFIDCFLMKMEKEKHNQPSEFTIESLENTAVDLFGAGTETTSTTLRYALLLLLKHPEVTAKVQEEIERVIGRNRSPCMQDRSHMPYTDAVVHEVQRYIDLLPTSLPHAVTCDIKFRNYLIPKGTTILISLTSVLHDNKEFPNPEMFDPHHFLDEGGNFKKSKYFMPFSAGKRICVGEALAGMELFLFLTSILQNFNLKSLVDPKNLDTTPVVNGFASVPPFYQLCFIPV
Sequence of Cytochrome P450 2C19 (P33261 whole entry): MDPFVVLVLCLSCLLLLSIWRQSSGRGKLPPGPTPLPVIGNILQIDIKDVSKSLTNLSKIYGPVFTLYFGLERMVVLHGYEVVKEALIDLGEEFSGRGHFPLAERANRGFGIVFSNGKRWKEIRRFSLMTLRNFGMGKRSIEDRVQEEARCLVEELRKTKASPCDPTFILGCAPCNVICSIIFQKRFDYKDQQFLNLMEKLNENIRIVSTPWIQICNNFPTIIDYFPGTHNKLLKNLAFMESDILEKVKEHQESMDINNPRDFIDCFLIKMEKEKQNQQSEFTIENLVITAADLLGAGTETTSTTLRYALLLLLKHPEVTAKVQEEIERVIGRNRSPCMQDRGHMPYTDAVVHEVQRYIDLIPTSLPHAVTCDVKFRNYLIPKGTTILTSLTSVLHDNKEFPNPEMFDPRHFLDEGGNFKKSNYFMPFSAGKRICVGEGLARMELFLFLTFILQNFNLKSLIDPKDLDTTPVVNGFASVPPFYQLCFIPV

As for `CCOc1c2c(c(OCC)c3ccccc13)C(=O)N(c1ccc(CC(=O)O)cc1C)C2`, the EC50 in [1] is 7.94 nM. Also, in the series on Rattus norvegicus [2], the Activity amounted to 19%.
Consider `CCOc1c2c(c(OCC)c3cc(C)ccc13)C(=O)N(c1ccc(CC(=O)O)cc1)C2=O`, for which, in the series with Rattus norvegicus [3], the Activity is 76%. Further, the EC50 in [1] is 20 nM. Besides, the affinity in [4] corresponds to a Ki of 158 nM. The compound also had a half-life in [5] of 31.7 h.
As to `CCOc1c2c(c(OCC)c3ccccc13)C(=O)N(c1ccc(CC(=O)O)cc1Br)C2`, the Activity in the series on Rattus norvegicus [3] amounted to 47%. The EC50 in series [1] was 5.01 nM.
`CCOc1c2c(c(OCC)c3ccccc13)C(=O)N(c1ccc(CC(=O)O)cc1F)C2`: the EC50 in [1] was 3.98 nM. Also, the Activity with Rattus norvegicus [2] is recorded as 5%.
For `CCOc1c2c(c(OCC)c3ccccc13)C(=O)N(c1ccc(CC(=O)O)cc1OC)C2`, in series [1], the EC50 was 10 nM.
As for `CCOc1c2c(c(OCC)c3ccccc13)C(=O)N(c1ccc(CC(=O)O)cc1Cl)C2`, the EC50 in [1] is 5.01 nM. The Activity with Rattus norvegicus [2] is recorded as 14%.
Regarding `COc1c2c(c(OC)c3ccccc13)C(=O)N(c1ccc(CC(=O)O)cc1)C2=O`, in series [1], the EC50 was 200 nM.
The same measure, in the same setting: as for `CCOc1c2c(c(OCC)c3cc(F)ccc13)C(=O)N(c1ccc(CC(=O)O)cc1)C2=O`, the figure is 79.4 nM.
As for `CCOc1c2c(c(OCC)c3ccccc13)CN(c1ccc(CC(=O)O)cc1)C2`, the EC50 in series [1] was 251 nM. In addition, in [4], the Ki is 631 nM.
On to `CCOc1c2c(c(OCC)c3ccccc13)C(=O)N(c1ccc(CC(=O)O)cc1C(F)(F)F)C2`, for which, in series [1], the EC50 is 50.1 nM.
As for `NCC1(CC(=O)O)CCCCC1` [GABAPENTIN], the inhibition in vivo at 30 mg/kg with Rattus norvegicus [6] turned out to be 100%.
Regarding `CCCOc1c2c(c(OCCC)c3ccccc13)C(=O)N(c1ccc(CC(=O)O)cc1)C2`, the EC50 in series [1] is 126 nM. Further, the Ki in series [4] is 631 nM.
Take `CCOc1c2c(c(OCC)c3ccccc13)C(=O)N(c1ccc(CC(=O)O)cc1)C2=O`: the IC50 is over 100000 nM on Cytochrome P450 3A4 [7]; over 100000 nM at Cytochrome P450 2C19; over 100000 nM on Cytochrome P450 2C9; over 100000 nM at Cytochrome P450 3A4 [11]; 65000 nM at Cytochrome P450 1A2; 42000 nM at Cytochrome P450 2D6. The Vdss with Rattus norvegicus [8] was 0.28 L/kg. Moreover, the CLH in series [9] and in [10] was under 0.5 mL/min/g in each case. The EC50 in series [1] was 25.1 nM. In addition, the CL/F in series [12] is 0.2 mL/min/kg. The compound also showed a Ki in [4] of 158 nM. In [5], the half-life was 19.9 h.
In the case of `CCOc1c2c(c(OCC)c3ccccc13)C(=O)N(c1ccc(C(C)C(=O)O)cc1)C2` (stereo unspecified), the EC50 in [1] is over 1000 nM. The compound further showed a Ki in [4] of 200 nM.
In the case of `Cc1ccc(-c2cc(C(F)(F)F)nn2-c2ccc(S(N)(=O)=O)cc2)cc1` [CELECOXIB], the outcome with Rattus norvegicus [3] was Active. Besides, the inhibition in vivo at 30 mg/kg in the series with Rattus norvegicus [13] is 100%.
For `CCOc1c2c(c(OCC)c3ncccc13)C(=O)N(c1ccc(CC(=O)O)cc1)C2=O`, the EC50 in series [1] was over 1000 nM. The affinity in [4] corresponds to a Ki of 31.6 nM.
In the same order, the values of `CCCCCCOc1c2c(c(OCCCCCC)c3ccccc13)C(=O)N(c1ccc(CC(=O)O)cc1)C2` are over 1000 nM and over 6310 nM.
The corresponding values for `CCCCOc1c2c(c(OCCCC)c3ccccc13)C(=O)N(c1ccc(CC(=O)O)cc1)C2` are 200 nM and 2000 nM.
Turning to `CCOc1c2c(c(OCC)c3ccccc13)C(=O)N(c1ccc(CC(=O)O)c(C)c1)C2`, in series [1], the EC50 was over 1000 nM.
Same read-out and setting: for `CCOc1c2c(c(OCC)c3ccccc13)C(=O)N(c1ccc(CC(=O)O)c(Cl)c1)C2` the value was over 1000 nM.
For the compound `CC(C)Oc1c2c(c(OC(C)C)c3ccccc13)C(=O)N(c1ccc(CC(=O)O)cc1)C2`, in [1], the EC50 was 39.8 nM. The same compound showed a Ki in series [4] of 398 nM.
Take `CCOc1c2c(c(OCC)c3ccccc13)C(=O)N(c1ccc(CC(=O)O)cc1)C2`: in [14], the concentration was 5 to 11 µM. For the same compound, in the series on Rattus norvegicus [15], the ED50 is 1.5 mg/kg. Besides, in the series on Rattus norvegicus [8], the Vdss came to 0.3 L/kg. Besides, the EC50 in [1] is 20 nM. Also, the outcome in the series on Rattus norvegicus [16] was inactive. The compound also came in with a CL/F in [12] of 0.6 mL/min/kg. In series [4], this compound showed a Ki of 79.4 nM. The half-life in series [5] was 8.5 h.
